Measured values reported in patent publication US10076519B2 (CYTOKINETICS, INC., priority 2010, dated 2018).

Test system: rabbit skeletal myofibrils (fast skeletal myofibrils)
Test: Activation of fast skeletal myofibrils (PUMA assay, PK/LDH-coupled ATPase at pCa25)
Assay type: biochemical
Settings: AC1.4 determined according to the procedure of Example 39; reported as class symbols
Summary of the method: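 ATPase activity of Triton-washed rabbit skeletal myofibrils, roughly 90% fast fibres, tracked by NADH loss at 340 nm through a PK/LDH-coupled ADP-regenerating system. Calcium set to 25% of maximal activity (pCa25), in PIPES 12 mM pH 6.8 with 2 mM MgCl2 and 1 mM DTT; AC1.4 reported.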

Mean AC1.4 | SMILES
B (B=1-10 uM) | CC(C)(CNc1ccc(-c2cncc(C#N)c2)nn1)c1ccccc1Cl [5-(6-{[2-(2-chlorophenyl)-2-methylpropyl]amino}pyridazin-3-yl)pyridine-3-carbonitrile]
B (B=1-10 uM) | CC(C)(CNc1ccc(-c2cncc(C(N)=O)c2)nn1)c1ccccc1Cl [5-(6-{[2-(2-chlorophenyl)-2-methylpropyl]amino}pyridazin-3-yl)pyridine-3-carboxamide]
A (A=<1 uM) | CC(C)(CNc1ccc(-c2ccc3[nH]c(O)nc3c2)nn1)c1ncccc1F [5-(6-{[2-(3-fluoro(2-pyridyl))-2-methylpropyl]amino}pyridazin-3-yl)benzimidazol-2-ol]
C (C=10-20 uM) | CC(C)(CNc1ccc(-c2n[nH]c(=O)o2)nn1)c1ccc(F)cc1 [5-(6-{[2-(4-fluorophenyl)-2-methylpropyl]amino}pyridazin-3-yl)-1,3,4-oxadiazolin-2-one]
D (D=>20 uM) | CC(C)(CNc1ccc(-c2ccc3[nH]nc(C#N)c3c2)nn1)c1ccc(F)cc1 [5-(6-{[2-(4-fluorophenyl)-2-methylpropyl]amino}pyridazin-3-yl)-1H-indazole-3-carbonitrile]
A (A=<1 uM) | CC(C)(CNc1ccc(-c2ccc3[nH]nc(C(N)=O)c3c2)nn1)c1ccc(F)cc1 [5-(6-{[2-(4-fluorophenyl)-2-methylpropyl]amino}pyridazin-3-yl)-1H-indazole-3-carboxamide]
B (B=1-10 uM) | CC(C)(CNc1ccc(-c2ccc3[nH]nc(C(=N)N)c3c2)nn1)c1ccc(F)cc1 [5-(6-{[2-(4-fluorophenyl)-2-methylpropyl]amino}pyridazin-3-yl)-1H-indazole-3-carboxamidine]
B (B=1-10 uM) | CC(C)(CNc1ccc(-c2cc(C(N)=O)c3[nH]ncc3c2)nn1)c1ccc(F)cc1 [5-(6-{[2-(4-fluorophenyl)-2-methylpropyl]amino}pyridazin-3-yl)-1H-indazole-7-carboxamide]
C (C=10-20 uM) | CC(C)(CNc1ccc(-c2ccc(C#N)nc2)nn1)c1ccc(F)cc1 [5-(6-{[2-(4-fluorophenyl)-2-methylpropyl]amino}pyridazin-3-yl)pyridine-2-carbonitrile]
B (B=1-10 uM) | CC(C)(CNc1ccc(-c2ccc(C(N)=O)nc2)nn1)c1ccc(F)cc1 [5-(6-{[2-(4-fluorophenyl)-2-methylpropyl]amino}pyridazin-3-yl)pyridine-2-carboxamide]
B (B=1-10 uM) | CC(C)(CNc1ccc(-c2cncc(C#N)c2)nn1)c1ccc(F)cc1 [5-(6-{[2-(4-fluorophenyl)-2-methylpropyl]amino}pyridazin-3-yl)pyridine-3-carbonitrile]
B (B=1-10 uM) | CC(C)(CNc1ccc(-c2cncc(C(N)=O)c2)nn1)c1ccc(F)cc1 [5-(6-{[2-(4-fluorophenyl)-2-methylpropyl]amino}pyridazin-3-yl)pyridine-3-carboxamide]

Same assay, conditions: median AC1.4 class, procedure of Example 39

Mean AC1.4 | SMILES
C (C=10-20 uM) | CC(C)(Nc1ccc(-c2ccc(C(N)=O)cc2)nn1)c1ccccc1 [4-{6-[(1-methyl-1-phenylethyl)amino]pyridazin-3-yl}benzamide]
B (B=1-10 uM) | NC(=O)c1cc(-c2ccc(NC3(c4ncccc4F)CCC3)nn2)ccc1O [5-(6-{[(3-fluoro(2-pyridyl))cyclobutyl]amino}pyr-idazin-3-yl)-2-hydroxybenzamide]
B (B=1-10 uM) | NC(=O)c1ccc(-c2ccc(NC3(c4ncccc4F)CCC3)nn2)s1 [5-(6-{[(3-fluoro-2-pyridyl)cyclobutyl]amino}pyr-idazin-3-yl)thiophene-2-carboxamide]
D (D=>20 uM) | O=C(O)c1ccc(-c2ccc(NC3(c4ncccc4F)CCC3)nn2)s1 [5-(6-{[(3-fluoro-2-pyridyl)cyclobutyl]amino}pyr-idazin-3-yl)thiophene-2-carboxylic acid]
B (B=1-10 uM) | NC(=O)c1ccc(-c2ccc(NC3(c4ccc(F)cc4)CCC3)nn2)s1 [5-(6-{[(4-fluorophenyl)cyclobutyl]ami-no}pyridazin-3-yl)thiophene-2-carboxamide]

Same assay, conditions: median AC1.4 reported as class; procedure of Example 39

Mean AC1.4 | SMILES
A (A=<1 uM) | NC(=O)c1ccc(F)c(-c2ccc(NCC3(c4ncccc4F)CCC3)nn2)c1O [4-fluoro-3-[6-({[(3-fluoro(2-pyridyl))cyclobutyl]methyl}ami-no)pyridazin-3-yl]-2-hydroxybenzamide]
A (A=<1 uM) | NC(=O)c1cc(-c2ccc(NC[C@]3(c4ncccc4F)C[C@H](F)C3)nn2)c(F)cc1O [4-fluoro-5-[6-({[3-fluoro-1-(3-fluoro(2-pyridyl))cyclobutyl]methyl}ami-no)pyridazin-3-yl]-2-hydroxybenzamide]
A (A=<1 uM) | NC(=O)c1cc(-c2ccc(NCC3(c4ncccc4F)CCC3)nn2)c(F)cc1O [4-fluoro-5-[6-({[(3-fluoro(2-pyridyl))cyclobutyl]methyl}ami-no)pyridazin-3-yl]-2-hydroxybenzamide]
D (D=>20 uM) | Cn1cc(NC(=O)c2ccc(NCC3(c4ncccc4F)CCC3)nn2)nc1C(N)=O [4-{[6-({[(3-fluoro(2-pyridyl))cyclobutyl]methyl}ami-no)pyridazin-3-yl]carbonylamino}-1-methylimidazole-2-carboxamide]
A (A=<1 uM) | NC(=O)c1cc(-c2ccc(NC[C@]3(c4ncccc4F)C[C@H](F)C3)nn2)ccc1O [5-[6-({[3-fluoro-1-(3-fluoro(2-pyridyl))cyclobutyl]methyl}ami-no)pyridazin-3-yl]-2-hydroxybenzamide]
B (B=1-10 uM) | O=C(O)c1cc(-c2ccc(NC[C@]3(c4ncccc4F)C[C@H](F)C3)nn2)ccc1O [5-[6-({[3-fluoro-1-(3-fluoro(2-pyridyl))cyclobutyl]methyl}ami-no)pyridazin-3-yl]-2-hydroxybenzoic acid]
B (B=1-10 uM) | COc1ccc(-c2ccc(NC[C@]3(c4ncccc4F)C[C@H](F)C3)nn2)cc1C(N)=O [5-[6-({[3-fluoro-1-(3-fluoro(2-pyridyl))cyclobutyl]methyl}ami-no)pyridazin-3-yl]-2-methoxybenzamide]
A (A=<1 uM) | NC(=O)c1cc2cc(-c3ccc(NC[C@]4(c5ncccc5F)C[C@H](F)C4)nn3)ccc2[nH]1 [5-[6-({[3-fluoro-1-(3-fluoro(2-pyridyl))cyclobutyl]methyl}ami-no)pyridazin-3-yl]indole-2-carboxamide]
B (B=1-10 uM) | O=C(O)c1cc2cc(-c3ccc(NC[C@]4(c5ncccc5F)C[C@H](F)C4)nn3)ccc2[nH]1 [5-[6-({[3-fluoro-1-(3-fluoro(2-pyridyl))cyclobutyl]methyl}ami-no)pyridazin-3-yl]indole-2-carboxylic acid]
C (C=10-20 uM) | O=C1NCc2cc(-c3ccc(NC[C@]4(c5ncccc5F)C[C@H](F)C4)nn3)ccc21 [5-[6-({[3-fluoro-1-(3-fluoro(2-pyridyl))cyclobutyl]methyl}ami-no)pyridazin-3-yl]isoindolin-1-one]
D (D=>20 uM) | COc1ncc(-c2ccc(NCC3(c4ncccc4F)CCC3)nn2)cc1C#N [5-[6-({[(3-fluoro(2-pyridyl))cyclobutyl]methyl}ami-no)pyridazin-3-yl]-2-methoxypyridine-3-carbonitrile]
C (C=10-20 uM) | COc1ncc(-c2ccc(NCC3(c4ncccc4F)CCC3)nn2)cc1C(N)=O [5-[6-({[(3-fluoro(2-pyridyl))cyclobutyl]methyl}ami-no)pyridazin-3-yl]-2-methoxypyridine-3-carboxamide]
